Measured values reported in ChEMBL document CHEMBL3868599, “Strategy for designing selective α-l-rhamnosidase inhibitors: Synthesis and biological evaluation of l-DMDP cyclic isothioureas” (Bioorg Med Chem, 2017).

Legend:
[1] = Inhibition of Penicillium decumbens alpha-L-rhamnosidase using p-nitrophenyl-glycoside as substrate by spectrophotometric method
[2] = system: Prunus dulcis; assay: Inhibition of almond beta-glucosidase at 100 uM using p-nitrophenyl-glycoside as substrate by spectrophotometric method
[3] = species on record: Bos taurus; assay: Inhibition of bovine liver beta-glucosidase at 100 uM using p-nitrophenyl-glycoside as substrate by spectrophotometric method
[4] = system: Oryza sativa; assay: Inhibition of rice alpha-glucosidase at 100 uM using p-nitrophenyl-glycoside as substrate by spectrophotometric method
[5] = species on record: Rattus norvegicus; assay: Inhibition of rat intestinal maltase assessed as D-glucose level at 100 uM using maltose as substrate measured after 10 to 30 mins
[6] = system: Aspergillus niger; assay: Inhibition of Aspergillus niger amyloglucosidase assessed as D-glucose level at 100 uM using maltose as substrate measured after 10 to 30 mins
[7] = target: T1, Tissue alpha-L-fucosidase (Bos taurus) (UniProt Q2KIM0); assay: Inhibition of bovine kidney alpha-L-fucosidase at 100 uM using p-nitrophenyl-glycoside as substrate by spectrophotometric method
T1 sequence (whole entry): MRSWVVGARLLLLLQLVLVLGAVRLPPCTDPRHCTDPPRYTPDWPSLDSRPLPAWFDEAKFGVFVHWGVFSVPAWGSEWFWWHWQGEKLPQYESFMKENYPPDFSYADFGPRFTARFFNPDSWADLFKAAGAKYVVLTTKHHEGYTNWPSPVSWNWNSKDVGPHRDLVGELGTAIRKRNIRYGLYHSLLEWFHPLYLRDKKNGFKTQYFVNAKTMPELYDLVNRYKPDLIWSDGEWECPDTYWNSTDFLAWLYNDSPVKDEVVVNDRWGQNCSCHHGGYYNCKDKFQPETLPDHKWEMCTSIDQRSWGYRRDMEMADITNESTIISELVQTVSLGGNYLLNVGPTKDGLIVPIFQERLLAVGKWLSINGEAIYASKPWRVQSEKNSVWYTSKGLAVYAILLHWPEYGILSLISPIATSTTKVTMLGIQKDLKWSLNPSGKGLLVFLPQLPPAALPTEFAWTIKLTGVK

[8] = target: T2, Uncharacterized protein (Sus scrofa) (UniProt I3LIR5); assay: Inhibition of porcine kidney trehalase assessed as D-glucose level at 100 uM using maltose as substrate measured after 10 to 30 mins
T2 sequence (whole entry): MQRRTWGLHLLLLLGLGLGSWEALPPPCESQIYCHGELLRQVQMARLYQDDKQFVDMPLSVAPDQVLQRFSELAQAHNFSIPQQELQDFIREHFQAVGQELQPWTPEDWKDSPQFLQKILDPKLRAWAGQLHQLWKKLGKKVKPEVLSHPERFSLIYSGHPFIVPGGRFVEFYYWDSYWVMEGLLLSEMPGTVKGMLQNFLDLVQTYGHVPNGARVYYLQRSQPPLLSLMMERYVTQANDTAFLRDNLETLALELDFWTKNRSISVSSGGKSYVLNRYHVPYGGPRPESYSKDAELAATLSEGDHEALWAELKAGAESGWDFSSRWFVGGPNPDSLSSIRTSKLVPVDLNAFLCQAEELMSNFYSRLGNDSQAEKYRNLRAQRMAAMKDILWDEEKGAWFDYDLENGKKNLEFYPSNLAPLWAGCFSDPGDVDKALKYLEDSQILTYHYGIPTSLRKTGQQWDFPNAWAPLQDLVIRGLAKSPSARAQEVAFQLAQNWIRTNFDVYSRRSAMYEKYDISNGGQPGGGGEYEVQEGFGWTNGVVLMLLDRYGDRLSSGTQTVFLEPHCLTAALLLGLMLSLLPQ

[9] = species on record: Homo sapiens; assay: Inhibition of human lysosomal beta-glucosidase at 100 uM using 4-methylumbelliferyl-beta-D-glucopyranoside as substrate preincubated for 45 mins followed by substrate addition measured after 30 mins by fluorescence spectrophotometric method
[10] = system: Escherichia coli; assay: Inhibition of Escherichia coli beta-glucuronidase at 100 uM using p-nitrophenyl-glycoside as substrate by spectrophotometric method
[11] = target: T3, Beta-galactosidase (Bos taurus) (UniProt Q58D55); assay: Inhibition of bovine liver beta-galactosidase at 100 uM using p-nitrophenyl-glycoside as substrate by spectrophotometric method
T3 sequence (whole entry): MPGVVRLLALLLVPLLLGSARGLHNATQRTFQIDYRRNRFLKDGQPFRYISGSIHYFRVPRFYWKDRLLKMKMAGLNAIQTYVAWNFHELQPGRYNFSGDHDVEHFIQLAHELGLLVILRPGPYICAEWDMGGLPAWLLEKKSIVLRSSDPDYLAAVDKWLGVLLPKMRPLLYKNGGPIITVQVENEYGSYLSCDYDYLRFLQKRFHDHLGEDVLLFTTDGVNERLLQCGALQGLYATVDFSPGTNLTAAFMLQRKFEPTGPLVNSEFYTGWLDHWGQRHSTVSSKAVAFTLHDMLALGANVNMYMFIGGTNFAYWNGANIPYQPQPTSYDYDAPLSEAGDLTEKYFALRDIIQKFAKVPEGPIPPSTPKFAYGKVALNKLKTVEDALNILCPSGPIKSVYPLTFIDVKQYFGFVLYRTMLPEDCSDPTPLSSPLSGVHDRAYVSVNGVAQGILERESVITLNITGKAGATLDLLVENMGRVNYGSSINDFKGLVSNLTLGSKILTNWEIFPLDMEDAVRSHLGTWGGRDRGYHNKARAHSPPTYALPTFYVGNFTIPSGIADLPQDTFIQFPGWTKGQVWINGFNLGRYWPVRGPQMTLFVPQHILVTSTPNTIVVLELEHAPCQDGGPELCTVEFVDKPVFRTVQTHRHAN

[12] = system: Penicillium decumbens; assay: Inhibition of Penicillium decumbens alpha-L-rhamnosidase at 100 uM using p-nitrophenyl-glycoside as substrate by spectrophotometric method
[13] = Inhibition of human lysosomal beta-glucosidase using 4-methylumbelliferyl-beta-D-glucopyranoside as substrate preincubated for 45 mins followed by substrate addition measured after 30 mins by fluorescence spectrophotometric method
[14] = target: T4, Beta-galactosidase (Bos taurus, UniProt Q58D55); assay: Inhibition of bovine liver beta-galactosidase using p-nitrophenyl-glycoside as substrate by spectrophotometric method
T4 sequence (Q58D55 whole entry): T3 sequence (whole entry)

[15] = system: Prunus dulcis; assay: Inhibition of almond beta-glucosidase at 1000 uM using p-nitrophenyl-glycoside as substrate by spectrophotometric method
[16] = species on record: Bos taurus; assay: Inhibition of bovine liver beta-glucosidase at 1000 uM using p-nitrophenyl-glycoside as substrate by spectrophotometric method
[17] = species on record: Homo sapiens; assay: Inhibition of human lysosomal beta-glucosidase at 1000 uM using 4-methylumbelliferyl-beta-D-glucopyranoside as substrate preincubated for 45 mins followed by substrate addition measured after 30 mins by fluorescence spectrophotometric method
[18] = system: Aspergillus niger; assay: Inhibition of Aspergillus niger amyloglucosidase assessed as D-glucose level at 1000 uM using maltose as substrate measured after 10 to 30 mins
[19] = species on record: Rattus norvegicus; assay: Inhibition of rat intestinal maltase assessed as D-glucose level at 1000 uM using maltose as substrate measured after 10 to 30 mins
[20] = target: T1, Tissue alpha-L-fucosidase (Bos taurus); assay: Inhibition of bovine kidney alpha-L-fucosidase at 1000 uM using p-nitrophenyl-glycoside as substrate by spectrophotometric method
[21] = target: T2, Uncharacterized protein (Sus scrofa); assay: Inhibition of porcine kidney trehalase assessed as D-glucose level at 1000 uM using maltose as substrate measured after 10 to 30 mins
[22] = system: Escherichia coli; assay: Inhibition of Escherichia coli beta-glucuronidase at 1000 uM using p-nitrophenyl-glycoside as substrate by spectrophotometric method
[23] = Inhibition of rice alpha-glucosidase using p-nitrophenyl-glycoside as substrate by spectrophotometric method; parameters: species or system Oryza sativa
[24] = Inhibition of bovine liver beta-glucosidase using p-nitrophenyl-glycoside as substrate by spectrophotometric method; parameters: species or system Bos taurus

IC50 [1]	inhibition [2]	inhibition [3]	inhibition [4]	inhibition [5]	inhibition [6]	inhibition [7]	inhibition [8]	inhibition [9]	inhibition [10]	inhibition [11]	inhibition [12]	IC50 [13]	IC50 [14]	IC50 [24]	Compound	also measured
1 µM	< 50%	< 50%	< 50%	< 50%	< 50%	< 50%	< 50%	< 50%	< 50%	< 50%					OC[C@H]1[C@H](O)[C@@H](O)[C@@H]2CS/C(=N/CCCCCCCc3ccccc3)N12	
6.8 µM	< 50%	< 50%	< 50%	< 50%	< 50%	< 50%	< 50%	< 50%	< 50%	< 50%					OC[C@H]1[C@H](O)[C@@H](O)[C@@H]2CS/C(=N/CCCc3ccccc3)N12	
	< 50%	< 50%	< 50%	< 50%	< 50%	< 50%	< 50%		< 50%		< 50%	0.74 µM	100 µM		CCCCCCCCCCNC(=S)N1[C@H](CO)[C@@H](O)[C@H](O)[C@H]1CO	
37 µM													719 µM		CCCC/N=C1/SC[C@H]2[C@H](O)[C@@H](O)[C@H](CO)N12	inhibition [15]: < 50%; inhibition [16]: < 50%; inhibition [17]: < 50%; inhibition [18]: < 50%; inhibition [19]: < 50%; inhibition [20]: < 50%; inhibition [21]: < 50%; inhibition [22]: < 50%; IC50 [23]: 339 µM
2.2 µM	< 50%	< 50%	< 50%	< 50%	< 50%	< 50%	< 50%	< 50%	< 50%	< 50%					OC[C@H]1[C@H](O)[C@@H](O)[C@@H]2CS/C(=N/Cc3ccccc3)N12	
1.8 µM	< 50%	< 50%	< 50%	< 50%	< 50%	< 50%	< 50%	< 50%	< 50%	< 50%					OC[C@H]1[C@H](O)[C@@H](O)[C@@H]2CS/C(=N/CCCCCc3ccccc3)N12	
	< 50%		< 50%	< 50%	< 50%	< 50%	< 50%		< 50%		< 50%	0.16 µM	24 µM	23 µM	CCCCCCCCCCCCNC(=S)N1[C@H](CO)[C@@H](O)[C@H](O)[C@H]1CO	
	< 50%		< 50%	< 50%	< 50%	< 50%	< 50%		< 50%		< 50%	73 µM	30 µM	36 µM	CCCCCCCCCCCCNC(=S)N1[C@@H](CO)[C@H](O)[C@@H](O)[C@@H]1CO	
	< 50%		< 50%	< 50%	< 50%	< 50%	< 50%		< 50%		< 50%	1 µM	93 µM	63 µM	CCCCCCCCCC/N=C1/SC[C@@H]2[C@@H](O)[C@H](O)[C@@H](CO)N12	
